By Papp is commonly meant the rate of passage across a membrane or cell layer, normalised by area and donor concentration. High values mean fast passage, low ones slow passage.

This is an account of results in paper PMC11126104 (Toxins, 2024).

One data set in a line: in vitro. Particulars: human.
For data set [1] the following is noted: pH 7.
Data set [2] has as its system Caco-2/HT-29MTX monolayers.
The conditions of data set [3]: rat, in vivo; cited from earlier work.
For data set [4] the following is noted: cited from earlier work.

On to `CC(C)[C@H]1C(=O)O[C@H](C(C)C)C(=O)N(C)[C@@H](C(C)C)C(=O)O[C@H](C(C)C)C(=O)N(C)[C@@H](C(C)C)C(=O)O[C@H](C(C)C)C(=O)N1C` [ENNB, enniatin B], for which, in “in vitro”, the Papp was found to be 916 nm/s. In addition, in data set [1], the “intestinal bioaccessibility, range of values” is given as 0.6-98.2%. For the same molecule, in the data set with Caco-2/HT-29MTX cells, the “toxicity / cell viability (MTT)” value is listed as “not affecting cell viability”. For the same molecule, the “FA (%) absorption category” value in data set [2] is “High”.

Regarding `COc1cc2c(c3oc4cccc(O)c4c(=O)c13)[C@@H]1C=CO[C@@H]1O2` [STG, sterigmatocystin], the “intestinal bioaccessibility, range of values” in data set [1] is reported as 1.5-59.3%. Also, the “toxicity / cell viability (MTT)” value in the data set on Caco-2/HT-29MTX cells is “not affecting cell viability”. Besides, in data set [2], the “FA (%) absorption category” value was “High”.

On to aflatoxin B1 [AFB1], for which the “absorption within the intestinal tract” value in data set [3] is on record as “nearly total absorption”. Besides, in data set [4], the “log Po/w” value was 2.09. Besides, the “toxicity / cell viability (MTT)” value in the data set with Caco-2/HT-29MTX cells is “not affecting cell viability”.
